Experimental findings from US4548820A, “Xanthine compounds” (Adir, priority 1982, dated 1985) are described below.

Where only a bound is given, the exact number is not on record here.

For assay [1], the target named is T1, A 1 receptors (Homo sapiens, UniProt P30542).
T1 sequence (P30542 1-326): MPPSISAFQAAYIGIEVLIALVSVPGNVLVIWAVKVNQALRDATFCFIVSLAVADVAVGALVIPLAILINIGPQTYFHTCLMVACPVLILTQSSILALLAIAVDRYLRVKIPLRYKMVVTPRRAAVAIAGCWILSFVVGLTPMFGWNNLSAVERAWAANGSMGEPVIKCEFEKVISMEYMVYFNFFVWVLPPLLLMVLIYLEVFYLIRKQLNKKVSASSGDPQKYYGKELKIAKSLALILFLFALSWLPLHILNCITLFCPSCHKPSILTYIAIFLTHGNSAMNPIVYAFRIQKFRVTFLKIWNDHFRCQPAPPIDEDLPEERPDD
The experiment in a line: Purinergic A 1 receptors. The class given is binding.

Assay [2] relates to effect produced in the guinea pig by a histamine aerosol. The experiment in a line: Test of A. K. Armitage, histamine aerosol at 4%. It is filed as in vivo. The following applies: oral administration of 5 mg/kg. The method, then:
When submitted to the test of A. K. Armitage, Brit J. Pharmacol. 17, 196, (1961), the compounds according to the invention administered by oral route at doses between 0.5 and 10 mg/kg, depending on the compounds, inhibit by 50% the effect produced in the guinea pig by a histamine aerosol at 4%. For certain of these compounds, the effect is still very strong 48 hours after oral administration.
By way of non-restricting example, the oral administration of 5 mg/kg of the compound of example 1, inhibits for more than 48 hours the broncho-spasm caused be a histamine aerosol at 4%. In addition, a reduction of the anaphylactic cutaneous reaction is observed in the rat after a single administration of 20 mg/kg per os of this compound.

As a reminder, the IC50 is the concentration that inhibits the measured activity by half. Higher therefore signals lower potency. On to `CC(C)Cn1c(=O)n(C)c(=O)c2[nH]c(CCN3CCN(C(c4ccccc4)c4ccccc4)CC3)nc21` [Example 1, 1-methyl-3-isobutyl-8-[2-(4-diphenylmethyl-piperazinyl)ethyl]xanthine], for which the half-inhibitory concentration (IC50) in assay [1] was more than 100 µM. Also, the “duration of inhibition of the broncho-spasm caused by a histamine aerosol at 4%” value in assay [2] is “more than 48 hours”.
